Data as given in patent publication EP0426075A1, “Benzylpyrrolidine derivatives as dopamine agonists” (SYNTEX (U.S.A.) INC., priority 1989, dated 1991).

Experiments:
DA2 receptor = assay: Goldberg in situ femoral arterial preparation (DA2 assay), intra-arterial injection; format: in vivo, dog; conditions: optimal response of test compound divided by optimal response of DPDA
Method: (§1) The compounds were subsequently tested following intra-arterial administration in an in situ renal and femoral arterial preparation in the dog, as developed by L.I. Goldberg, to test for DA1 and DA2 dopamine activity, respectively. Details of the methodology are provided in the European J. Pharmacol. 89 :137, 1983, as well as in Hypertension 6 :1-25, 1984.
as §1, with “compounds of this invention” for “compounds”, “were” for “were subsequently”, “Pharmacol. ,” for “Pharmacol.”, “Hypertension ,” for “Hypertension”, “1984. J. L. McNay, L. I. Goldberg JPET 151 :23-31, 1966.” for “1984.”
(§2) The compounds were injected directly into the renal or femoral artery for analysis of DA, or DA2 activity, respectively. […] The compounds were tested for relative activity in comparison to the standard DA, agonist, dopamine or the standard DA2 agonist, DPDA. Specific DA, or DA2 activity of the tested compound was verified by Sch 23390 or domperidone blockade.
(§3) Adult mongrel dogs of either sex (12-20 kg) were anesthetized with pentobarbital sodium (33 mg/kg, i.v.). The animals were intubated and ventilated with room air using a Harvard respirator.
as §1, with “compounds of this invention” for “compounds”, “were” for “were subsequently”, “Pharmacol. ,” for “Pharmacol.”, “Hypertension ,” for “Hypertension”, “1984. J. L. McNay, L. I. Goldberg JPET 151 :23-31, 1966” for “1984.”
as §2, with “of DA1” for “of DA,”, “standard DA1” for “standard DA,”
The thoracic aorta was catheterized with a Millar micro-tip (size 5F) transducer via the right carotid artery for blood pressure monitoring. The right external jugular vein was cannulated with PE-160 tubing for supplemental pentobarbital administration. The left femoral artery was isolated and an electromagnetic flowprobe of the appropriate size (8-11 mm circ.) was placed around the artery and connected to a Caroline Medical electromagnetic flowmeter. Surface ECG leads were placed subcutaneously on the chest and limbs to monitor heart rate. A 25 gauge 3/4" needle bent 90` , 4 mm from the tip, was placed in the femoral artery proximal to the probe and connected to an infusion pump delivering saline at a constant rate of 1 ml/min. Following a saline and bradykinin challenge (0.02 to 0.04 nmoles, in 0.2 ml saline, i.a.), a dose response curve for DPDA was generated by injecting 4-fold increasing doses i.a. ranging from 3 to 48 nmoles in 0.2 ml saline. Test compounds were injected similarly in 4-fold increasing doses up to 3000 nmoles. Compounds were then repeated at their optimal dose following domperidone pretreatment (10-40 Ilg/kg, iv).
Efficacy ratios were determined by division of the optimal response of the test compound by the optimal response of the standard agent. The optimal dose of compound was defined as that which produced a maximum increase in blood flow before causing a change in systemic blood pressure. ED50 values were derived by regression analysis from individually generated dose response curves. Potency ratios were the quotients calculated from the division of the standard agent EDso by the ED50 of the test compound. […] If the inhibition of the test compound was similar to that of dopamine or DPDA, the compound was considered to be a DA, or DA2 agonist, respectively.

DA1 receptor = assay: Goldberg in situ renal arterial preparation (renal DA1 assay), intra-arterial injection; format: in vivo, dog; conditions: optimal response of test compound divided by optimal response of dopamine
Method: as §1
as §1, with “compounds of this invention” for “compounds”, “were” for “were subsequently”, “Pharmacol. ,” for “Pharmacol.”, “Hypertension ,” for “Hypertension”, “1984. J. L. McNay, L. I. Goldberg JPET 151 :23-31, 1966.” for “1984.”
as §2, §3
as §1, with “compounds of this invention” for “compounds”, “were” for “were subsequently”, “Pharmacol. ,” for “Pharmacol.”, “Hypertension ,” for “Hypertension”, “1984. J. L. McNay, L. I. Goldberg JPET 151 :23-31, 1966” for “1984.”
as §2, with “of DA1” for “of DA,”, “standard DA1” for “standard DA,”
The abdominal aorta was catheterized with a Millar micro-tip (size: 5F) transducer via the right femoral artery for blood pressure monitoring. The right femoral vein was cannulated with PE-160 tubing for iv saline infusion, as well as supplemental pentobarbital administration. The left renal artery was isolated through a lateral abdominal incision. An electromagnetic flowprobe of the appropriate size (8-11 mm circ.) was placed around the artery and connected to a Carolina Medical electromagnetic flowmeter. Surface ECG leads were placed subcutaneously on the chest and limbs to monitor heart rate. A 25 gauge 3/4" needle bent 90°, 4 mm from the tip, was placed in the renal artery proximal to the probe and connected to an infusion pump delivering saline at a constant rate of 1 ml/min. Following a saline and 1µg norepinephrine (NE) challenge, both given in an injection volume of 0.2 ml, the animal was treated with a phenoxybenzamine, 0.5 mg/kg/min i.a., infusion for a duration of 10-20 minutes as necessary to achieve a complete blockade of the NE challenge. Blood pressure was maintained by supplemental saline infusion (10-20 ml/kg, iv). Bradykinin, a standard for nonspecific vasodilation, was given at 0.60 nmole doses, in 0.2 ml saline, i.a., prior to generating a dose response curve for dopamine in which 4-fold increasing doses, ranging from 3 to 48 nmoles, were injected i.a. in 0.2 ml of saline (i.a. bolus). Test compounds were injected similarly in 4-fold increasing doses up to a maximum of 3000 nmoles. Compounds were then repeated at their optimal dose following Sch 23390 pretreatment (0.05 - 0.10 mg/kg, iv).
Efficacy ratios were determined by division of the optimal response of the test compound by the optimal response of the standard agent.

**Q.** For `CCCN(CCC)CCc1ccc(O)c(O)c1` [DPDA, di-propyl dopamine, reference compound], which “Relative Efficacy to DA2 Standard” value (DA2 receptor) is on record?
**A.** 1.00

**Q.** For `Cl.NCCc1ccc(O)c(O)c1` [Dopamine, 4-(2-aminoethyl)-1,2-Benzenediol hydrochloride], which “Relative Efficacy to DA1 Standard” value (DA1 receptor) is on record?
**A.** 1.00
